≈ marks a conversion by molar mass, not a printed value.

Broadly, the MIC99 is an inhibitory concentration at the 99% level, which refers to growth in some studies and to a panel of isolates in others. Usually MBC stands for the smallest concentration meeting the test's criterion for killing.

The first experiment concerns Mycobacterium tuberculosis variant bovis. Briefly: Antimycobacterial activity against Mycobacterium bovis BCG assessed as reduction in microbial growth incubated for 7 days by resazurin dye based assay. Type of experiment: functional. To be noted: 168 h, time 7 day. Background: Alamar Blue is a resazurin reagent that responds to reducing activity.
As for `FC(F)(F)c1cc([C@H]2C[C@@H](CN3CCCC3)N2Cc2ccccc2Br)cc(C(F)(F)F)c1` (racemic), the MIC99 stood at 22 µM.
Turning to `CC(C)NC[C@@H]1C[C@H](c2ccccc2)N1Cc1ccccc1Br` (racemic), the MIC99 came to 51 µM.
Consider `CC(C)NC[C@@H]1C[C@H](c2ccc(OC(F)(F)F)cc2)N1Cc1ccccc1OC(F)(F)F` (racemic), for which the MIC99 was found to be 26 µM.
Same read-out and setting: in the case of `FC(F)(F)Oc1ccc(C2CCN(C[C@@H]3C[C@H](c4ccccc4)N3Cc3ccccc3Br)CC2)cc1` (racemic) it was 56 µM; in that of `CN(C)C[C@@H]1C[C@H](c2cc(Br)cc(Br)c2)N1Cc1ccccc1Br` (racemic), 48 µM.
Turning to `CC(C)NC[C@@H]1C[C@H](c2ccc(OC(F)(F)F)cc2)N1Cc1ccccc1Br` (racemic), the MIC99 is 24 µM.
Turning to `COc1ccc([C@H]2C[C@@H](CN3CCCC3)N2Cc2ccccc2Br)cc1` (racemic), the MIC99 worked out at 42.6 µM.
Turning to `CC(C)NC[C@@H]1C[C@H](c2ccccc2)N1Cc1ccccc1OC(F)(F)F` (racemic), the MIC99 came out at 45 µM.
`COCCNC[C@@H]1C[C@H](c2ccc(OC(F)(F)F)cc2)N1Cc1ccccc1OC(F)(F)F` (racemic): the MIC99 is 30 µM.
In the case of `Brc1ccccc1CN1[C@H](CN2CCCC2)C[C@@H]1c1ccccc1` (racemic), the MIC99 came to 65 µM.
As for `C#CCNC[C@@H]1C[C@H](c2cc(Br)cc(Br)c2)N1Cc1ccccc1Br` (racemic), the MIC99 is 54 µM.
Take `FC(F)(F)c1ccc(C2CCN(C[C@@H]3C[C@H](c4ccccc4)N3Cc3ccccc3Br)CC2)cc1` (racemic): the MIC99 was determined as 60 µM.
`Clc1cc(Cl)cc([C@H]2C[C@@H](CN3CCCC3)N2Cc2ccccc2Br)c1` (racemic): the MIC99 is 11 µM.

For a further experiment the test system is unchanged. In words: Bactericidal activity against Mycobacterium bovis BCG assessed as inhibition of bacterial growth incubated for 7 days by resazurin dye based assay. Format: functional. To be noted: 168 h, time 7 day.
For the molecule `FC(F)(F)c1cc([C@H]2C[C@@H](CN3CCCC3)N2Cc2ccccc2Br)cc(C(F)(F)F)c1` (racemic), the MBC stood at 12 µM (≈ 6.26 µg/mL).
Regarding `FC(F)(F)Oc1ccc([C@H]2C[C@@H](CN3CCCC3)N2Cc2ccccc2OC(F)(F)F)cc1` (racemic), the MBC worked out at 12 µM (≈ 5.69 µg/mL).

The values are drawn from ChEMBL document CHEMBL5385915 (J Med Chem, 2024).
